Tests used:
PASK [1] = molecular target: PASK (UniProt #Q96RG2; residues 879-1323) (Homo sapiens (Human), UniProt Q96RG2); test: PASK ATP Radiochemical Assay; type: biochemical; details: 33P-ATP radiochemical assay; read-out: IC50 Kinase Domain
Outline: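 Radiometric kinase assay: GST-tagged PASK (5 nM final) from insect cells with Myelin Basic Protein (20 μM) in HEPES pH 7.5 buffer, 1% DMSO; reaction started with ^33P-ATP, 120 min at room temperature. Substrate phosphorylation captured on P81 paper and read by scintillation counting.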

PASK [2] = molecular target: PASK (Homo sapiens (Human), UniProt Q96RG2); test: PAS Kinase FRET Assay; type: biochemical; details: TR-FRET assay; read-out: IC50 Kinase Domain
PASK (Homo sapiens (Human), UniProt Q96RG2), sequence (Q96RG2 999-1251): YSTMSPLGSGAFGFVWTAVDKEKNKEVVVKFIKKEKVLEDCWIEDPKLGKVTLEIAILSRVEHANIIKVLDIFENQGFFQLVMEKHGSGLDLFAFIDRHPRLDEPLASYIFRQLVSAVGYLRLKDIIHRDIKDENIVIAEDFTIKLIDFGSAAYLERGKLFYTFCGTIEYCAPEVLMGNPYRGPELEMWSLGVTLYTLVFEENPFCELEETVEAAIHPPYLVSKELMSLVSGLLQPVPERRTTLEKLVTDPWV
Outline: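 Reaction buffer: 50 mM HEPES, 10 mM MgCl2, 1 mM EGTA, 2 mM DTT, 0.01% Tween-20. Test compounds (eleven-point series prepared at 4× final) preceded PASK and substrate/ATP. Reaction ran 2 h at 25 °C in the dark, then stopped. Phospho-ULight peptide detected by Eu-antibody TR-FRET, 665/615 nm ratio.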

CK2a2 = CK2a2 (Homo sapiens (Human), UniProt P19784); test: Biochemical Assay for CK2 Activity; details: 33P-ATP radiochemical assay; read-out: IC50 CK2 a2
CK2a2, sequence (P19784 whole entry): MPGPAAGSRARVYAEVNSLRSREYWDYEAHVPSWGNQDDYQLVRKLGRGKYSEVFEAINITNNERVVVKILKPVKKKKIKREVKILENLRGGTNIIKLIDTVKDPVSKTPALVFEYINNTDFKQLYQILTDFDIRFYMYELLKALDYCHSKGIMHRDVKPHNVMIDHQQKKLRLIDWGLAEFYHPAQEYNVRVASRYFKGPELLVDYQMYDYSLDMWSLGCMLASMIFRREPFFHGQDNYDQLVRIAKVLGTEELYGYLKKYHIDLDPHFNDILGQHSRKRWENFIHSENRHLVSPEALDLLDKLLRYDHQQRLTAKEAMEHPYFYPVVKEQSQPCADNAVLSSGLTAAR
Outline: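 GST-tagged full-length human CK2a2 from insect cells (1.2 nM) with 20 μM RRRDDDSDDD peptide, in pH 7.5 HEPES buffer with MgCl2, DTT and 1% DMSO. Reactions started with ³³P-ATP were run for 120 min at room temperature. Substrate phosphorylation was measured by P81 phosphocellulose filter binding and scintillation counting.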

Measured: IC50

PASK (UniProt #Q96RG2; residues 879-1323) (Homo sapiens (Human), UniProt Q96RG2), sequence (Q96RG2 879-1323): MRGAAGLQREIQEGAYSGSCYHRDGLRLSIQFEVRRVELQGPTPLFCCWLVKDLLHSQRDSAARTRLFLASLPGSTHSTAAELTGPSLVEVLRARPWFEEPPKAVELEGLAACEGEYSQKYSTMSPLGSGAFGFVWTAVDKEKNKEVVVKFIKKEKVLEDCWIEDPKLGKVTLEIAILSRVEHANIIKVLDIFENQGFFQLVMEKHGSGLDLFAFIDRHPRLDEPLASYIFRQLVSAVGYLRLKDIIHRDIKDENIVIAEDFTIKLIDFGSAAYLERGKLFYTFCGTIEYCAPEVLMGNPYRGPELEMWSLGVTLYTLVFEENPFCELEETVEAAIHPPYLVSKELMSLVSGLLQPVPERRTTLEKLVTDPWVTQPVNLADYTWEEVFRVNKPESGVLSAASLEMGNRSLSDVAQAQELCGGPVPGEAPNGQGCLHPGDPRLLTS

O=c1cc(-c2ccc3c(c2)OC(F)(F)O3)[nH]c2c(-c3ccccn3)cnn12 [Example 158, 5-(2,2-Difluorobenzo[d][1,3]dioxol-5-yl)-3-(pyridin-2-yl)pyrazolo[1,5-a]pyrimidin-7(4H)-one]
≤ 10 µM: all assays above

Nc1nn2c(=O)cc(-c3ccc4[nH]ncc4c3)[nH]c2c1-c1ccccn1 [Example 159, 2-Amino-5-(1H-indazol-5-yl)-3-(pyridin-2-yl)pyrazolo[1,5-a]pyrimidin-7(4H)-one]
≤ 10 µM: all assays above

O=c1cc(-c2ccc3[nH]ncc3c2)[nH]c2c(-c3ccccn3)cnn12 [Example 160, 5-(1H-Indazol-5-yl)-3-(pyridin-2-yl)pyrazolo[1,5-a]pyrimidin-7(4H)-one]
≤ 10 µM: all assays above

CCc1nn2c(=O)cc(-c3ccc4c(c3)OCO4)[nH]c2c1-c1ccccn1 [Example 161, 5-(Benzo[d][1,3]dioxol-5-yl)-2-ethyl-3-(pyridin-2-yl)pyrazolo[1,5-a]pyrimidin-7(4H)-one]
≤ 10 µM: all assays above

Nc1nn2c(=O)cc(-c3ccc(Cl)cc3F)[nH]c2c1-c1ccccn1 [Example 163, 2-Amino-5-(4-chloro-2-fluorophenyl)-3-(pyridin-2-yl)pyrazolo[1,5-a]pyrimidin-7(4H)-one]
≤ 10 µM: all assays above

O=c1cc(-c2ccc3c(c2)OCO3)[nH]c2c(-c3ncccc3F)cnn12 [Example 164, 5-(Benzo[d][1,3]dioxol-5-yl)-3-(3-fluoropyridin-2-yl)pyrazolo[1,5-a]pyrimidin-7(4H)-one]
≤ 10 µM: all assays above

Nc1nn2c(=O)cc(-c3ccc(F)cc3)[nH]c2c1-c1ccccn1 [Example 171, 2-Amino-5-(4-fluorophenyl)-3-(pyridin-2-yl)pyrazolo[1,5-a]pyrimidin-7(4H)-one]
≤ 10 µM: all assays above

Nc1nn2c(=O)cc(-c3ccc4[nH]nnc4c3)[nH]c2c1-c1ccccn1 [Example 191, 2-Amino-5-(1H-benzo[d][1,2,3]triazol-5-yl)-3-(pyridin-2-yl)pyrazolo[1,5-a]pyrimidin-7(4H)-one]
≤ 10 µM: all assays above

O=c1cc(-c2ccc3[nH]nnc3c2)[nH]c2c(-c3ccccn3)c(O)nn12 [Example 193, 5-(1H-Benzo[d][1,2,3]triazol-5-yl)-2-hydroxy-3-(pyridin-2-yl)pyrazolo[1,5-a]pyrimidin-7(4H)-one]
≤ 10 µM: all assays above

CCCNC(=O)c1c(N)nn2c(=O)cc(-c3ccc4c(cnn4C)c3)[nH]c12 [Example 197, 2-Amino-5-(1-methyl-1H-indazol-5-yl)-7-oxo-N-propyl-4,7-dihydropyrazolo[1,5-a]pyrimidine-3-carboxamide]
≤ 10 µM: all assays above

CCCNC(=O)c1c(N)nn2c(=O)cc(-c3ccc4[nH]ncc4c3)[nH]c12 [Example 198, 2-Amino-5-(1H-indazol-5-yl)-7-oxo-N-propyl-4,7-dihydropyrazolo[1,5-a]pyrimidine-3-carboxamide]
≤ 10 µM: all assays above

Nc1nn2c(=O)cc(-c3ccc4[nH]nnc4c3)[nH]c2c1-c1ccccc1 [Example 199, 2-Amino-5-(1H-benzo[d][1,2,3]triazol-5-yl)-3-phenylpyrazolo[1,5-a]pyrimidin-7(4H)-one]
≤ 10 µM: all assays above

CCc1nn2c(=O)cc(-c3ccc4[nH]nnc4c3)[nH]c2c1-c1ccccn1 [Example 201, 5-(1H-benzo[d][1,2,3]triazol-5-yl)-2-ethyl-3-(pyridin-2-yl)pyrazolo[1,5-a]pyrimidin-7(4H)-one]
≤ 10 µM: all assays above

CC(=O)Nc1nn2c(=O)cc(-c3ccc4c(cnn4C)c3)[nH]c2c1-c1ccccn1 [Example 205, N-(5-(1-Methyl-1H-indazol-5-yl)-7-oxo-3-(pyridin-2-yl)-4,7-dihydropyrazolo[1,5-a]pyrimidin-2-yl)acetamide]
≤ 10 µM: all assays above

Cc1nn2c(=O)cc(-c3ccc4c(c3)OCO4)[nH]c2c1Cc1ccccn1 [Example 210, 5-(Benzo[d][1,3]dioxol-5-yl)-2-methyl-3-(pyridin-2-ylmethyl)pyrazolo[1,5-a]pyrimidin-7(4H)-one]
≤ 10 µM: all assays above

O=c1cc(-c2ccc3[nH]nnc3c2)[nH]c2c(-c3cccnc3)cnn12 [Example 213, 5-(1H-Benzo[d][1,2,3]triazol-5-yl)-3-(pyridin-3-yl)pyrazolo[1,5-a]pyrimidin-7(4H)-one]
≤ 10 µM: all assays above

CCCNC(=O)c1cnn2c(=O)cc(-c3ccc4[nH]nnc4c3)[nH]c12 [Example 214, 5-(1H-Benzo[d][1,2,3]triazol-5-yl)-7-oxo-N-propyl-4,7-dihydropyrazolo[1,5-a]pyrimidine-3-carboxamide]
≤ 10 µM: all assays above

Nc1nn2c(=O)cc(-c3ccc4[nH]nnc4c3)[nH]c2c1-c1ccc(Cl)cc1 [Example 217, 2-Amino-5-(1H-benzo[d][1,2,3]triazol-5-yl)-3-(4-chlorophenyl)pyrazolo[1,5-a]pyrimidin-7(4H)-one]
≤ 10 µM: all assays above

O=c1cc(-c2ccc3[nH]nnc3c2)[nH]c2c(-c3ccc(Cl)cc3)cnn12 [Example 218, 5-(1H-Benzo[d][1,2,3]triazol-5-yl)-3-(4-chlorophenyl)pyrazolo[1,5-a]pyrimidin-7(4H)-one]
≤ 10 µM: all assays above

CCCNC(=O)c1c(N)nn2c(=O)cc(-c3ccc4[nH]nnc4c3)[nH]c12 [Example 223, 2-Amino-5-(1H-benzo[d][1,2,3]triazol-5-yl)-7-oxo-N-propyl-4,7-dihydropyrazolo[1,5-a]pyrimidine-3-carboxamide]
≤ 10 µM: all assays above

CCCNC(=O)c1c(N)nn2c(=O)cc(-c3ccc4[nH]nc(C)c4c3)[nH]c12 [Example 224, 2-Amino-5-(3-methyl-1H-indazol-5-yl)-7-oxo-N-propyl-4,7-dihydropyrazolo[1,5-a]pyrimidine-3-carboxamide]
≤ 10 µM: all assays above

CCCNC(=O)c1c(N)nn2c(=O)cc(-c3ccc(Cl)cc3)[nH]c12 [Example 225, 2-Amino-5-(4-chlorophenyl)-7-oxo-N-propyl-4,7-dihydropyrazolo[1,5-a]pyrimidine-3-carboxamide]
≤ 10 µM: all assays above

CCCNC(=O)c1c(O)nn2c(=O)cc(-c3ccc4c(c3)OCO4)[nH]c12 [Example 227, 5-(Benzo[d][1,3]dioxol-5-yl)-2-hydroxy-7-oxo-N-propyl-4,7-dihydropyrazolo[1,5-a]pyrimidine-3-carboxamide]
≤ 10 µM: all assays above

COc1c(-c2cc(=O)n3nc(N)c(-c4ccccn4)c3[nH]2)ccc2c1OCO2 [Example 234, 2-Amino-5-(4-methoxybenzo[d][1,3]dioxol-5-yl)-3-(pyridin-2-yl)pyrazolo[1,5-a]pyrimidin-7(4H)-one]
≤ 10 µM: all assays above

COc1c(-c2cc(=O)n3nc(O)c(-c4ccccn4)c3[nH]2)ccc2c1OCO2 [Example 235, 2-Hydroxy-5-(4-methoxybenzo[d][1,3]dioxol-5-yl)-3-(pyridin-2-yl)pyrazolo[1,5-a]pyrimidin-7(4H)-one]
≤ 10 µM: all assays above

COc1c(-c2cc(=O)n3nc(C)c(-c4ccccn4)c3[nH]2)ccc2c1OCO2 [Example 237, 5-(4-Methoxybenzo[d][1,3]dioxol-5-yl)-2-methyl-3-(pyridin-2-yl)pyrazolo[1,5-a]pyrimidin-7(4H)-one]
≤ 10 µM: all assays above

Reference: patent publication US10953012B2, “Heterocyclic compounds for the inhibition of pask” (BioEnergenix LLC, priority 2011, dated 2021)
